Source: publication PMC9688808, “Discovery of Novel Lin28 Inhibitors to Suppress Cancer Cell Stemness” (Cancers, 2022)

How the values were obtained:
[1] = system: DUNE cells; test: Real-time qPCR of Let-7d, SOX2, HMGA2 in DUNE cells; type: cell-based; settings: 20 uM, 48 h
Description: The DUNE cell line and DUNE cells with Lin28B knockout by CRISPR (DUNE (KO)) were reported in our previous studies. IGROV1 cells were obtained from Sigma-Aldrich (St. Louis, MO, USA). DUNE and DUNE (KO) cells were cultured in Dulbecco’s Modified Eagle Medium with high Glucose/L-glutamine (DMEM; Hyclone, Logan, UT, USA) and 10% of fetal bovine serum (FBS; Gibico, Waltham, MA, USA). IGROV1 cells were cultured in Roswell Park Memorial Institute 1640 (RPMI-1640; Hyclone) medium with 10% FBS. All the cell lines were incubated in 5% CO2 at 37 °C and were tested for mycoplasma contamination monthly and cell line authentication was tested by short tandem repeat profiling by ATCC.
(§1) There are several standard molecular techniques, including real-time qPCR, flow cytometry, cell proliferation, colony formation, and immunoblotting assays, that have been reported previously by our lab.
Figure 4 Lin28 inhibitors restore Let-7d expression and suppress SOX2 and HMGA2 genes. DUNE (top) and DUNE (KO) (bottom) cells were treated with 20 uM of the indicated compounds for 48 h. Real-time qPCR measured RNA levels of Let-7d, SOX2, and HMGA2. Three biological replicates were performed and all results are presented as mean +/− SD. p-value ≤ 0.05—(*); ≤0.01—(**); ≤0.001—(***).

[2] = target: T1, Lin28B CSD+ZKD (Homo sapiens, UniProt Q6ZN17); test: Fluorescence polarization (FP) assay, Lin28 CSD+ZKD with FAM-labeled Let-7 probe; type: binding; settings: 20 uM compound; for inhibition at 20 µM: read-out: inhibition of FP signals
T1 construct: Lin28B CSD+ZKD (aa7-204); His-tag; made in house; host or cells: Escherichia coli BL21
T1 sequence (Q6ZN17 7-204): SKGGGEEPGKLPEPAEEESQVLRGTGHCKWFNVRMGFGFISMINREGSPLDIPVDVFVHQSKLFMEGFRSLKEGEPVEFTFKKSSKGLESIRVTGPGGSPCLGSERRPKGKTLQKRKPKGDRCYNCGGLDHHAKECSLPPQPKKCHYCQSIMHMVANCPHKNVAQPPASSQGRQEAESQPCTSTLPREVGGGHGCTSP
Excerpt: ZINC compounds were purchased from Enamine (Kyiv, Ukraine), Life Chemicals Ltd. (Kyiv, Ukraine), or Princeton Biomolecular Research (Princeton, NJ, USA) with >90% purity. Upon receiving the compounds, the molecular masses were validated by LC/MS/MS. His-tagged human Lin28B ZKD (aa110-174), Lin28B CSD+ZKD (aa7-204), and Lin28A ZKD (aa121-187) were expressed in Escherichia coli BL21 cells and purified by immobilized metal ion affinity chromatography (IMAC) with nickel nitrilotriacetic acid (NiNTA) resin and size exclusion chromatography (s75 10/300 GL) as we have previously reported.
The fluorescein amidites (FAM)-tagged Let-7 probe with the sequence of […] was purchased from Integrated DNA Technologies (IDT). The probe at the concentrations ranging from 1 nM to 50 uM was incubated with Lin28B (ZKD) or Lin28 (CSD+ZKD) to a final volume of 30 uL at room temperature for 20 min. To read the fluorescence, a TECAN 500 machine was used. Fluorescence polarization was calculated using the following equation: P=Fparrallel−Fperpendicular/Fparrallel+Fperpendicular where P is the fluorescence polarization reading, F parallel is the fluorescence intensity acquired from the parallel excitation plane, and F perpendicular is the fluorescence intensity acquired from the perpendicular direction of the excitation plane. The total fluorescence intensity is estimated using the following equation: F=Fparallel+2Fperpendicular
All the raw FP signal data from the TECAN 500 FP results were analyzed using Prism 8.0 (GraphPad, San Diego, CA, USA); normalized curves were plotted and IC50 values were estimated. All FP data were repeated three to five times.
To test the predicted compounds by CADD, we established an FP assay using both Lin28B ZKD and Lin28B CSD+ZKD to be incubated with a FAM-labeled Let-7 oligo containing the GGAG motif. To validate that the signals obtained from FP assays reflect the interaction between Lin28 and Let-7, we have tested: (1) 1 nM–50 uM FAM-labeled Let-7 probes with 10 uM Lin28 proteins and observed a dose-dependent reduction of FP signal; (2) 1 nM FAM labeled Let-7 probes with 1 nM–50 uM Lin28 proteins and observed a dose-dependent increase of FP signal; (3) 1 nM–50 uM doses of non-labeled Let-7 oligo to be incubated with 1 nM FAM probe and 10 uM Lin28 proteins, and observed a dose-dependent reduction of FP signal (Figure 2A,B).
We then screened all 163 molecules predicted by the CADD pipeline by using the FP assays with 10 uM of Lin28B ZKD protein and 1 nM of FAM-labeled Let-7 probe. Compounds Li71 and 1632 were also included and served as positive controls. We used 60% inhibition of FP signals by 20 uM of the tested compounds as the cut-off and found 15 active compounds achieving a hit rate of 9% (15/163) (Figure 2C left). […]

[3] = system: DUNE cells; test: Real-time qPCR of CSC and neuroendocrine biomarkers in DUNE cells; type: cell-based; settings: 20 uM, 48 h
Description: as §1
Figure 6 Lin28 inhibitors block the expression of NE and CSC biomarkers. DUNE cells were treated with 20 uM of the indicated compound for 48 h. Real-time qPCR measured RNA levels of neuroendocrine (A) and CSC (B) biomarkers. Three biological replicates were performed and all results are presented as mean +/− SD. p-value ≤ 0.05—(*); ≤0.01—(**); ≤0.001—(***).

Row | Structure (SMILES) | inhibition at 20 µM [2] [%] | inhibition of FP signals [2] | HMGA2 mRNA level [1] | Let-7d expression level [1] | SOX2 mRNA level [1] | expression of CSC markers (IGF2BP1, CDH2, FOXD3, HEY1, ALDH1A2, CDK6, FOXC1, SIX2, ID4) [3] | expression of neuroendocrine markers (ASCL1, CHGB, SCGN, SYP, STT4) [3] | suppression of CDH2 expression [3] | suppression of FOXD3 expression [3]
1 | O=c1cccc(-c2nc3cc(F)c(O)cc3c(=O)[nH]2)[nH]1 [Ln115] | ~20 | – | strongly inhibited | approximately six- to eight-fold | strongly inhibited | reductions | blocked | up to 90% | up to 90%
2 | CC(=O)N(C)c1cccc(-c2ccc3nnc(C)n3n2)c1 [compound 1632, reference compound] | – | – | not | did not show any impacts | not | variable mild inhibitory effects or no inhibition | – | – | –
3 | CCOc1cccc2c1N[C@@H](c1ccc(C(=O)O)cc1)[C@H]1CC=C[C@@H]21 [Li71, reference compound] | – | ~ 30% | strongly inhibited | approximately six- to eight-fold | strongly inhibited | variable mild inhibitory effects or no inhibition | – | – | –

Now from value to compound, other results behind:

Row | inhibition at 20 µM [2] [%] | inhibition of FP signals [2] | Structure (SMILES) | HMGA2 mRNA level [1] | Let-7d expression level [1] | SOX2 mRNA level [1] | expression of CSC markers (IGF2BP1, CDH2, FOXD3, HEY1, ALDH1A2, CDK6, FOXC1, SIX2, ID4) [3] | expression of neuroendocrine markers (ASCL1, CHGB, SCGN, SYP, STT4) [3] | suppression of CDH2 expression [3] | suppression of FOXD3 expression [3]
4 | ~50 | – | CCc1cc(=O)[nH]c(Nc2cc(Cl)ccc2O)n1 [Ln7] | strongly inhibited | approximately six- to eight-fold | strongly inhibited | reductions | blocked | – | –
5 | ~50 | – | O=c1[nH]c(Nc2ccccc2O)cs1 [Ln15] | strongly inhibited | approximately six- to eight-fold | strongly inhibited | reductions | blocked | – | –
